System: human immortalized myoblasts (cell line 8220)
Assay: 2-deoxyglucose treatment during myoblast proliferation
Format: cell-based
Excerpt: FIG. 2. Deficiency of TDP-43 or FUS curtails anaerobic glucose metabolism and induces pro-atrophic pathways in myoblasts. A-B-C, Metabolic switch during myogenesis. Myoblasts rely mainly on anaerobic glycolysis while differentiating myocytes and myotubes switch towards a more aerobic metabolism (n=6 experiments). D, shTDP-43 and shFUS-treated myoblasts display consistent reductions in basal glycolysis and glycolytic capacity (n=6 experiments). E, Levels of lactate are decreased in shTDP-43 and shFUS-treated myoblasts (n=3). F, Basal mitochondrial ATP production is slightly affected by TDP-43 or FUS silencing, however effects on spare respiratory capacity are variable (n=6 experiments). G, Immunofluorescence and immublot images of MyoD in 2dg-treated myoblasts. H, Immunostaining images showing the effect of 2dg on the number of MyHC-postive myotubes. I, Pro-atrophic pathways of the […] (UPS) are dramatically augmented in shTDP-43 and shFUS-treated myoblasts (n=3). ECAR, Extracellular Acidification Rate; OCR, Oxygen Consumption Rate: 2dg, 2-deoxyglucose. T-test, *p<0.05; **p<0.01.
Decreased levels of lactate in homogenates from shTDP-43 and shFUS-treated myoblasts when compared to those from shRNA-treated myoblasts corroborated defects in the anaerobic oxidation of glucose (FIG. 2E). […] The increased numbers of mitochondria, as observed by TEM and TOMM20 staining (FIG. 1F,G), may provide a compelling explanation for the increased aerobic potential of shTDP-43 treated myoblasts.
A poor metabolic fitness in muscle is often associated to the upregulation of protein degradation pathways and atrophy. Expression of the key muscle specific E3 ubiquitin ligases, muscle RING finger 1 (MuRF1) and muscle atrophy F-box (MAFbx)/Atrogin-1, are markers of the activation of ubiquitin/proteasome system and atrophy in skeletal muscle.

[1] = 2-DG during myoblast proliferation

## O=CC[C@@H](O)[C@H](O)[C@H](O)CO [2-DG, 2-deoxyglucose]
[1]
  activation of MYOD: reduced the activation of MYOD
  myogenic process (MyHC-positive myotubes): stalled the myogenic process
2-DG treated myoblasts
  expression levels of MurF1 and Atrogin-1: mimicked the effects of TDP-43 and FUS silencing
